According to patent US5223485A, “Anaphylatoxin-receptor ligands” (Abbott Laboratories, priority 1991, dated 1993):
Bridge positions count the residues as written; N and C are the ends. Square brackets hold non-standard residues; d marks the D form. Peptide text beside a SMILES is read from it. * marks the point of attachment. ξ: configuration not given here. X3 = CC(C)C[C@H](NC[C@H](C)N*)C(=O)N[C@H](C)C(=O)N[C@@H](CCCNC(=N)N)C(=O)O; X2 = C[C@H](CN[C@@H](CCCNC(=N)N)C(=O)O)N*; NMe2Phe = CN(C)[C@@H](Cc1ccccc1)C(=O)*; 2Nal = N[C@@H](Cc1ccc2ccccc2c1)C(=O)O; NEtPhe = CCN[C@@H](Cc1ccccc1)C(=O)O; NMeF = CN[C@@H](Cc1ccccc1)C(=O)O; Cha = N[C@@H](CC1CCCCC1)C(=O)O; dPen = CC(C)(S)[C@@H](N)C(=O)O; ξTic = O=C(O)C1Cc2ccccc2CN1; NMeA = CN[C@@H](C)C(=O)O; dNMeA = CN[C@H](C)C(=O)O; Boc = CC(C)(C)OC(=O)*; Bz = O=C(c1ccccc1)*; Ethyl(2-NH2) = NCC*; For = O=C*

Biological target: T1, C5a Receptor (Homo sapiens, UniProt P21730)
T1 construct: 2.5-25 μg/mL of purified PMNL membrane fragments; from tissue; host or cells: polymorphonuclear leukocyte (PMNL) membrane fragments
T1 sequence (P21730 1-350): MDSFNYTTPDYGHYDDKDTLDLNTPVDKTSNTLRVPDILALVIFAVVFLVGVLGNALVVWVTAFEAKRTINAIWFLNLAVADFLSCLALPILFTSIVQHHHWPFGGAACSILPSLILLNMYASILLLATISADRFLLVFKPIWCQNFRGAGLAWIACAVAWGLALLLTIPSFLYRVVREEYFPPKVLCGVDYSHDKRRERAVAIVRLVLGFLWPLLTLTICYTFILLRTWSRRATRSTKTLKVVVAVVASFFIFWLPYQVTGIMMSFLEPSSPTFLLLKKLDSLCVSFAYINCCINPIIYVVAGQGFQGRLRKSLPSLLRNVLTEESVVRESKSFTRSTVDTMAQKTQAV
Assay: Anaphylatoxin receptor binding Ki determination: inhibition of 125I-C5a binding to PMNL membrane fragments
Details: 0.03-1 nM 125I-C5a, 2.5-25 μg/mL purified PMNL membrane fragments, filtration; read-out: In vitro C5a Receptor Binding Potency Ki
Protocol: Specific inhibition of C5a binding activity of representative compounds of the present invention was measured using 0.03-1 nM ^125 I-C5a with 2.5-25 μg/mL of purified PMNL membrane fragments (Borregaard, N.; Heiple, J. M.; Simons, E. R.; and Clark, R. A. J. Cell. Biol. 1983, 97, 52-61.). Free and membrane-bound ligand were separated by filtration.

Work on C[C@H](NC(=O)[C@H](CCCCN)NC(=O)[C@@H](N)Cc1ccccc1)C(=O)N[C@@H](CC1CCCCC1)C(=O)NCC(=O)N[C@H](Cc1c[nH]c2ccccc12)C(=O)N[C@H](C)C(=O)N[C@@H](CCCNC(=N)N)C(=O)O [Example 249, H-Phenylalanyl-Lysyl-Alanyl-{(2S)-2-Amino-3-cyclohexylpropanoyl}-Glycyl-DTryptophyl-DAlanyl-Arginyl-OH] (H-FKA[Cha]G[dW][dA]R-OH) yielded a Ki of 110 nM.
Compound CC(C)C[C@@H]1NC(=O)[C@H](CC2CCCCC2)NC(=O)[C@H](CC2CCCCC2)NC(=O)[C@H](C)NC(=O)[C@H](CCCCN)NC(=O)[C@H](NC(=O)c2ccccc2)C(C)(C)SSC[C@H](C(=O)N[C@@H](CCCNC(=N)N)C(=O)O)NC1=O [Example 279, Benzoyl-DPenicillaminyl*-Lysyl-Alanyl-{(2S)-2-Amino-3-cyclohexylpropanoyl)-{(2S)-2-Amino-3-cyclohexylpropanoyl}-Leucyl-DCysteinyl*-Arginyl-OH] (Bz-[dPen]KA[Cha][Cha]L[dC]R-OH; disulfide 1-7) has a Ki of 4000 nM.
For CC(C)C[C@H](NC(=O)CNC(=O)[C@@H](Cc1ccccc1)NC(=O)[C@H](C)NC(=O)[C@H](CCCCN)NC(=O)[C@@H](N)Cc1ccccc1)C(=O)N[C@H](C)C(=O)N[C@@H](CCCNC(=N)N)C(=O)O [Example 282, H-Phenylalanyl-Lysyl-Alanyl-DPhenylalanyl-Glycyl-Leucyl-DAlanyl-Arginyl-OH] (H-FKA[dF]GL[dA]R-OH), the Ki was 29 nM.
CC(C)C[C@H](NC(=O)[C@H](C)NC(=O)[C@H](C)NC(=O)[C@H](CCCCN)NC(=O)[C@@H](N)Cc1ccccc1)C(=O)N[C@@H](C)C(=O)N[C@H](C)C(=O)N[C@@H](CCCNC(=N)N)C(=O)O [Example 295, H-Phenylalanyl-Lysyl-Alanyl-Alanyl-Leucyl-Alanyl-DAlanyl-Arginyl-OH] (H-FKAALA[dA]R-OH) gave a Ki of 3300 nM.
With CC(C)C[C@H](NC(=O)[C@H](C)NC(=O)[C@H](CC1CCCCC1)NC(=O)[C@H](C)NC(=O)[C@H](CCCCN)NC(=O)[C@@H](N)Cc1ccccc1)C(=O)N(C)[C@H](C)C(=O)N[C@@H](CCCNC(=N)N)C(=O)O [Example 296, H-Phenylalanyl-Lysyl-Alanyl-{(2S)-2-Amino-3-cyclohexylpropanoyl}-Alanyl-Leucyl-(N-Methyl)DAlanyl-Arginyl-OH] (H-FKA[Cha]AL[dNMeA]R-OH) the Ki was 12 nM.
With CC(=O)N[C@@H](Cc1ccccc1)C(=O)N[C@@H](CCCCN)C(=O)N[C@@H](C)C(=O)N[C@@H](CC1CCCCC1)C(=O)N[C@@H](C)C(=O)N[C@@H](CC(C)C)C(=O)N[C@H](C)C(=O)N[C@@H](Cc1ccc(O)cc1)C(=O)O [Example 305, Ac-Phenylalanyl-Lysyl-Alanyl-{(2S)-2-Amino-3-cyclohexylpropanoyl}-Alanyl-Leucyl-DAlanyl-Tyrosyl-OH] (Ac-FKA[Cha]AL[dA]Y-OH) the Ki was 170 nM.
CC(C)C[C@H](NC(=O)CNC(=O)[C@H](CC1CCCCC1)NC(=O)[C@@H](Cc1ccccc1)NC(=O)[C@H](CCCCN)NC(=O)[C@@H](N)Cc1ccccc1)C(=O)N[C@H](C)C(=O)N[C@@H](CCCNC(=N)N)C(=O)O [Example 316, H-Phenylalanyl-Lysyl-DPhenylalanyl-{(2S)-2-Amino-3-cyclohexylpropanoyl}-Glycyl-Leucyl-DAlanyl-Arginyl-OH] (H-FK[dF][Cha]GL[dA]R-OH) was tested, and the Ki was 170 nM.
With CC(C)C[C@H](NC(=O)[C@H](CC1CCCCC1)NC(=O)[C@H](CC1CCCCC1)NC(=O)[C@H](C)NC(=O)[C@H](CCCCN)NC(=O)[C@@H](N)Cc1cn(C=O)c2ccccc12)C(=O)N[C@H](C)C(=O)N[C@@H](CCCNC(=N)N)C(=O)O [Example 338, H-Tryptophyl(N-formyl)-Lysyl-Alanyl-{(2S)-2-Amino-3-cyclohexylpropanoyl}-{(2S)-2-Amino-3-cyclohexylpropanoyl}-Leucyl-DAlanyl-Arginyl-OH] (H-W(For)KA[Cha][Cha]L[dA]R-OH) the Ki was 500 nM.
Compound CC(C)C[C@H](NC(=O)[C@H](CC1CCCCC1)NC(=O)[C@H](CC1CCCCC1)NC(=O)[C@H](C)NC(=O)[C@H](CSCCN)NC(=O)[C@@H](N)Cc1ccccc1)C(=O)N[C@H](C)C(=O)N[C@@H](CCCNC(=N)N)C(=O)O [Example 348, H-Phenylalanyl-(S-2-Aminoethyl)Cysteinyl-Alanyl-{(2S)-2-Amino-3-cyclohexylpropanoyl}-{(2S)-2-Amino-3-cyclohexylpropanoyl}-Leucyl-DAlanyl-Arginyl-OH] (H-FC(Ethyl(2-NH2))A[Cha][Cha]L[dA]R-OH) has a Ki of 140 nM.
Work on CSCC[C@H](NC(=O)[C@H](CC(=O)O)NC(=O)[C@H](CCCCN)NC(=O)[C@@H](N)Cc1ccc2ccccc2c1)C(=O)N[C@@H](CCC(N)=O)C(=O)N[C@@H](CC(C)C)C(=O)NCC(=O)N[C@@H](CCCNC(=N)N)C(=O)O [Example 377, H-{3-(2'-Naphthyl)alanyl}-Lysyl-Aspartyl-Methionyl-Glutaminyl-Leucyl-Glycyl-Arginyl-OH] (H-[2Nal]KDMQLGR-OH) yielded a Ki of 1800 nM.
Compound CCN[C@@H](Cc1ccccc1)C(=O)N[C@@H](CCCCN)C(=O)N[C@@H](C)C(=O)N[C@@H](CC1CCCCC1)C(=O)N[C@@H](C)C(=O)N[C@@H](CC(C)C)C(=O)N(C)[C@H](C)C(=O)N[C@@H](CCCNC(=N)N)C(=O)O [Example 402, (N-Ethyl)Phenylalanyl-Lysyl-Alanyl-{(2S)-2-Amino-3-cyclohexylpropanoyl}-Alanyl-Leucyl-(N-Methyl)DAlanyl-Arginyl-OH] (H-[NEtPhe]KA[Cha]AL[dNMeA]R-OH) has a Ki of 11 nM.
Compound CC(C)C[C@H](NC(=O)[C@H](C)NC(=O)[C@H](CC1CCCCC1)NC(=O)[C@H](C)NC(=O)[C@H](CCCCN)NC(=O)[C@H](Cc1ccccc1)NC(=O)OC(C)(C)C)C(=O)N[C@H](C)C(=O)N[C@@H](CCCNC(=N)N)C(=O)O [Example 404, tert-Butyloxycarbonyl-Phenylalanyl-Lysyl-Alanyl-{(2S)-2-Amino-3-cyclohexylpropanoyl}-Alanyl-Leucyl-DAlanyl-Arginyl-OH] (Boc-FKA[Cha]AL[dA]R-OH) has a Ki of 130 nM.
Work on CC(C)C[C@H](NC[C@H](C)NC(=O)[C@H](CC1CCCCC1)NC(=O)[C@H](C)NC(=O)[C@H](CCCCN)NC(=O)[C@@H](N)Cc1ccccc1)C(=O)N[C@H](C)C(=O)N[C@@H](CCCNC(=N)N)C(=O)O [Example 409, H-phenylalanyl-Lysyl-Alanyl-{(2S)-2-Amino-3-Cyclohexylpropanoyl}-Alanyl-.psi.{CH2 --NH}-Leucyl-DAlanyl-Arginyl-OH] (H-FKA[Cha]-X3) yielded a Ki of 3800 nM.
CC(C)C[C@H](NC(=O)[C@H](C)NC(=O)[C@H](CC1CCCCC1)NC(=O)[C@H](C)NC(=O)[C@H](CCCCN)NC(=O)[C@@H](N)Cc1ccccc1)C(=O)N[C@H](C)CN[C@@H](CCCNC(=N)N)C(=O)O [Example 421, H-Phenylalanyl-Lysyl-Alanyl-{(2S)-2-Amino-3-cyclohexylpropanoyl}-Alanyl-Leucyl-DAlanyl-.psi.{CH2 --NH}-Arginyl-OH] (H-FKA[Cha]AL-X2) showed a Ki of 3200 nM.
For CSCC[C@H](NC(=O)[C@H](CC(=O)O)NC(=O)[C@H](CCCCN)NC(=O)[C@@H](N)Cc1ccccc1)C(=O)N[C@@H](CCCNC(=N)N)C(=O)N[C@@H](CC(C)C)C(=O)NCC(=O)N[C@@H](CCCNC(=N)N)C(=O)O [Example 424, H-Phenylalanyl-Lysyl-Aspartyl-Methionyl-Arginyl-Leucyl-Glycyl-Arginyl-OH] (H-FKDMRLGR-OH), the Ki was 480 nM.
In the case of CC(C)C[C@H](NC(=O)[C@H](CCCNC(=N)N)NC(=O)[C@H](CC1CCCCC1)NC(=O)[C@H](C)NC(=O)[C@H](CCCCN)NC(=O)[C@@H](N)Cc1ccccc1)C(=O)N[C@H](C)C(=O)N[C@@H](CCCNC(=N)N)C(=O)O [Example 432, H-Phenylalanyl-Lysyl-Alanyl-{(2S)-2-Amino-3-cyclohexylpropanoyl}-Arginyl-Leucyl-DAlanyl-Arginyl-OH] (H-FKA[Cha]RL[dA]R-OH), the Ki is reported as 30 nM.
For CC(C)C[C@H](NC(=O)CNC(=O)C1Cc2ccccc2CN1C(=O)[C@H](C)NC(=O)[C@H](CCCCN)NC(=O)[C@@H](N)Cc1ccccc1)C(=O)N[C@H](C)C(=O)N[C@@H](CCCNC(=N)N)C(=O)O (some centres unmarked) [Example 445, H-Phenylalanyl-Lysyl-Alanyl-{(3R/S)-1,2,3,4-Tetrahydroisoquinolin-3-carbonyl}-Glycyl-Leucyl-DAlanyl-Arginyl-OH] (H-FKA[ξTic]GL[dA]R-OH), the Ki was 260 nM.
CC(C)C[C@H](NC(=O)CNC(=O)[C@H](CC1CCCCC1)NC(=O)[C@H](C)N(C)C(=O)[C@H](CCCCN)NC(=O)[C@H](Cc1ccccc1)N(C)C)C(=O)N(C)[C@H](C)C(=O)N[C@@H](CCCNC(=N)N)C(=O)O [Example 455, (N,N-di-Methyl)Phenylalanyl-Lysyl-(N-Methyl)Alanyl-{(2S)-2-Amino-3-cyclohexylpropanoyl}-Glycyl-Leucyl-(N-Methyl)DAlanyl-Arginyl-OH] (NMe2Phe-K[NMeA][Cha]GL[dNMeA]R-OH) was tested, and the Ki was 17 nM.
For CN[C@@H](Cc1ccccc1)C(=O)N[C@@H](CCCCN)C(=O)N[C@@H](CCCNC(=N)N)C(=O)N[C@@H](CCSC)C(=O)N[C@@H](CCC(N)=O)C(=O)N[C@@H](CC(C)C)C(=O)NCC(=O)N[C@@H](CCCNC(=N)N)C(=O)O [Example 460, (N-Methyl)Phenylalanyl-Lysyl-Arginyl-Methionyl-Glutaminyl-Leucyl-Glycyl-Arginyl-OH] (H-[NMeF]KRMQLGR-OH), the Ki was 21 nM.
Work on “Ac-Histidyl-Lysyl-Aspartyl-{(2S)-2-Amino-3-cyclohexylpropanoyl}-{(2S)-2-Amino-3-cyclohexylpropanoyl}-Leucyl-Pipecolyl(±)-Arginyl-OH [Example 13]” yielded a Ki of 850 nM.
